# Measured values published in US12252457B2, “Compositions and methods for reducing tactile dysfunction, anxiety, and social impairment” (President and Fellows of Harvard College, priority 2018, dated 2025).
# “And” between values parts separate entries of the source, which are not always exact repeats. Identical values can stand only once. “Also recorded” adds a separate entry of the source. Counter-ions that a name gives are not always drawn. Like-named read-outs stand apart in the source and are kept apart here.
# Experiments:
# SNL rats = test: Rat spinal nerve ligation (SNL) model of neuropathic pain, Von Frey 50% paw withdrawal threshold; type: in vivo, SD Rat; settings: for 50% g Threshold, individual animals: 5 mg/kg; for neuropathic pain sensitivity / mechanical hypersensitivity (mechanical allodynia): SNL rats, Von Frey stimulation of hindpaw glabrous skin; for 50% g Threshold, group Mean: n=8
# Experimental: Chung surgery were conducted on anesthetized rats. Rats were habituated in the testing environment for 15 minutes before allodynia measurement (2-3 times). Pre-dose baseline were taken on day 9 post surgery. Rats that don't show allodynic response at this point were excluded. SNL rats with a paw withdrawal threshold >4 g. The animals were grouped according to 50% paw withdrawal threshold (g) and weight. The animals were dosed test articles and vehicle according to the dose protocol. On the testing day (Day 9), rats were dosed with testing articles with 16 min interval between groups. Rats were measured for allodynic response at 0.75, 1.5, 3 h time point post dosing. All values will be expressed as mean±S.E.M. The significance of the differences among groups will be evaluated by two-way ANOVA followed by Dunnett's test using graphpad Prism 6 software. A p value of less than 0.05 is considered statistically significant.
# [1] = molecular target: T1, human GABA-A α2β3γ2 ion channels (Homo sapiens, UniProt P28472+P47869); test: Human GABA-A receptor IonFlux HT agonist assay (Cl-flux), α2β3γ2; type: cell-based; settings: for Normalized Percentage Activation, Mean: hGABAA α2β3γ2
# T1 construct: expressed in transfected cells
# T1 sequence (P47869 29-451): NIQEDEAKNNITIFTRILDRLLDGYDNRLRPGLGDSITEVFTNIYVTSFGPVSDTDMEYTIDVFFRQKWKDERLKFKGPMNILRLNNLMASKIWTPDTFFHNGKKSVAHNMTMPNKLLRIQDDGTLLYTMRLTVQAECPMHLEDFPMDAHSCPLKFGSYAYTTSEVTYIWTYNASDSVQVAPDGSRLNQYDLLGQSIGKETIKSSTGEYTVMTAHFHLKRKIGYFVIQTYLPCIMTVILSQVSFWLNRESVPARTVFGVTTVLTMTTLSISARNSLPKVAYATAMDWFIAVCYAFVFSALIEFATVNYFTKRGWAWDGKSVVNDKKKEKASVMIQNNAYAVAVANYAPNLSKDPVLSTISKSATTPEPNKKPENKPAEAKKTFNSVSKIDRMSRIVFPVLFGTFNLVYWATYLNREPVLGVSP
# T1 sequence (P28472 26-473): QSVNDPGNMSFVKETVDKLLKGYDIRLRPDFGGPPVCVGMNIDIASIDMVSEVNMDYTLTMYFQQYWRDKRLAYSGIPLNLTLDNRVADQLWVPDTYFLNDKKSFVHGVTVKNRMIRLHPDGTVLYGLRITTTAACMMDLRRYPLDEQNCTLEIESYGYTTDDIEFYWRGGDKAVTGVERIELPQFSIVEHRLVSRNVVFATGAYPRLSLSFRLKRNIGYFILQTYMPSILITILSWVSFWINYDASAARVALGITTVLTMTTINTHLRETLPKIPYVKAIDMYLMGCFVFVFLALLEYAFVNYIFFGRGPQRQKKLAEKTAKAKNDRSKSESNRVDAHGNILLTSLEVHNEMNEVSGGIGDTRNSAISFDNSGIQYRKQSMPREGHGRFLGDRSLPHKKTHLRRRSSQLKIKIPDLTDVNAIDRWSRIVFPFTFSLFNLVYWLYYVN
# T1 sequence (P18507 40-467 partner limits assumed): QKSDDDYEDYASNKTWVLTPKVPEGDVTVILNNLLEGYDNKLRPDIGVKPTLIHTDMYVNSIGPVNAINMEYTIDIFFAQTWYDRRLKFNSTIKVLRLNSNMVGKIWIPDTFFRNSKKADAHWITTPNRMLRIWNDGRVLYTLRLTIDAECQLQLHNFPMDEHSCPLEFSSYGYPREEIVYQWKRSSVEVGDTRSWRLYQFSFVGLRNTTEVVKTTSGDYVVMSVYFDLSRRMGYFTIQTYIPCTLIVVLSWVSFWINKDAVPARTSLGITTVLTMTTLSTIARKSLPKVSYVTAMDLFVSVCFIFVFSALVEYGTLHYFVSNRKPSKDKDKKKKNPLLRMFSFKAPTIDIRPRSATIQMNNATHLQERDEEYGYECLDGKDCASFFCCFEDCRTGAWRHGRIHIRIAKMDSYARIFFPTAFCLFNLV
# Text: (FIG. 12A) Six additions of 0.33% DMSO for 2 seconds were introduced to the cells to act as a time matched vehicle control for the agonist. (FIG. 12B) Note: The test compound was applied over two ‘experimental patterns’ in increasing concentrations. […] Time-matched negative and reference compound data are included for comparison.
# […] Aliquots were taken out and diluted 300× into external buffer to give the final assay concentration. All wells included a final DMSO concentration of 0.33% including all control wells.
# All recordings were obtained from a holding potential of −60 mV. The compound addition sequence that was used for all additions was the same for all assays. […] Each test concentration of compound was applied for 2 seconds followed by 30 seconds wash. The process was repeated with the next ascending concentration of test compound up to a maximum of six concentrations per well (FIG. 14).
# Peak inward currents in response to the additions of compound were measured. […] All data were first exported to an Excel compatible data file and then analyzed using Graph Pad Prism software.
# [2] = 0 Hour (pre-dose baseline), 5 mpk IP
# [3] = printed in the 0.75 Hour column, 5 mpk IP
# [4] = printed in the 1.5 Hour column, 5 mpk IP
# [5] = printed in the 3 Hour column, 5 mpk IP
Compound,Von frey test (MEAN ± S.E.M.) (SNL rats; [2]),"Von frey test (MEAN ± S.E.M.) (SNL rats; 0.75 Hour, 5 mpk IP)","Von frey test (MEAN ± S.E.M.) (SNL rats; 1.5 Hour, 5 mpk IP)","Von frey test (MEAN ± S.E.M.) (SNL rats; 3 Hour, 5 mpk IP)","50% g Threshold, group Mean (SNL rats; [3])","50% g Threshold, group Mean (SNL rats; [4])","50% g Threshold, group Mean (SNL rats; [5])","Normalized Percentage Activation, Mean ([1]; 0.3 μM)","Normalized Percentage Activation, Mean ([1]; 1 μM)","Normalized Percentage Activation, Mean ([1]; 3 μM)","Normalized Percentage Activation, Mean ([1]; 10 μM)","Normalized Percentage Activation, Mean ([1]; 30 μM)","Normalized Percentage Activation, Mean ([1]; 100 μM)","Normalized Percentage Activation, Mean ([1]; 300 μM)","Normalized Percentage Activation, Mean ([1]; 1000 μM)",further results
"NC1C=C(C(=O)O)CCC1 (stereo not shown) [Compound 5, 3-aminocyclohex-1-enecarboxylic acid hydrochloride]",2.3 ± 0.34 g,3.6 ± 0.54 g,4.1 ± 0.70 g,4.0 ± 0.79 g,2.31 g,3.61 g,4.09 g,1.42%,1.28%,1.23%,1.56%,1.48%,1.96%,1.77%,1.64%,"50% g Threshold, individual animals (SNL rats; 0 Hour (pre-dose baseline, day 9 post surgery), 5 mpk IP, hydrochloride): 0.99 g and 1.10 g and 1.56 g and 2.64 g and 2.81 g (2×) and 3.31 g (2×); 50% g Threshold, individual animals (SNL rats; 0.75 Hour post dosing, 5 mpk IP, hydrochloride): 3.33 g and 4.12 g and 2.81 g and 1.85 g and 4.34 g and 3.31 g and 2.37 g and 6.74 g; 50% g Threshold, individual animals (SNL rats; 1.5 Hour post dosing, 5 mpk IP, hydrochloride): 6.74 g (2×) and 5.10 g and 1.85 g and 3.71 g (2×) and 3.31 g and 1.56 g; 50% g Threshold, individual animals (SNL rats; 3 Hour post dosing, 5 mpk IP, hydrochloride): 6.42 g and 3.33 g and 2.81 g and 2.61 g and 3.71 g and 4.34 g and 0.82 g and 7.91 g; neuropathic pain sensitivity / mechanical hypersensitivity (mechanical allodynia) (SNL rats; hydrochloride): reduce tactile over-reactivity (mechanical allodynia); neuropathic pain sensitivity / mechanical hypersensitivity (mechanical allodynia) (SNL rats; listed as compound 5, hydrochloride): reduce neuropathic pain sensitivity; EC50 [1]: > 1000 µM; agonism of α2β3γ2-containing GABAA receptor (in words) ([1]; hydrochloride): not an agonist; also recorded: no agonism"
"O=C(O)C1=CCNCC1 [Isoguvacine, isoguvacine]",2.3 ± 0.33 g,1.8 ± 0.23 g,2.0 ± 0.23 g,4.9 ± 0.64 g,2.32 g,1.78 g,1.97 g,2.09%,4.69%,10.43%,32.71%,63.48%,85.91%,99.01%,100.05%,"50% g Threshold, individual animals (SNL rats; 0 Hour (pre-dose baseline, day 9 post surgery), 5 mpk IP): 0.99 g and 1.10 g and 1.85 g and 2.23 g and 2.81 g and 3.00 g and 3.31 g (2×); 50% g Threshold, individual animals (SNL rats; 0.75 Hour post dosing, 5 mpk IP): 1.31 g (2×) and 2.37 g (2×) and 2.81 g and 1.56 g (2×) and 0.99 g; 50% g Threshold, individual animals (SNL rats; 1.5 Hour post dosing, 5 mpk IP): 1.85 g (3×) and 2.37 g and 0.82 g and 2.81 g and 1.56 g and 2.64 g; 50% g Threshold, individual animals (SNL rats; 3 Hour post dosing, 5 mpk IP): 2.81 g and 6.74 g and 7.91 g and 3.33 g and 5.15 g and 4.34 g and 5.77 g and 3.31 g; analgesia effect (SNL rats; 3 hour time point, 5 mpk IP): significant analgesia effect; neuropathic pain sensitivity / mechanical hypersensitivity (mechanical allodynia) (SNL rats): reduce neuropathic pain sensitivity; neuropathic pain sensitivity / mechanical hypersensitivity (mechanical allodynia) (SNL rats; listed as isoguvacine): reduce tactile over-reactivity (mechanical allodynia); EC50 ([1]; GABAA receptor chloride flux assay, read-out: Estimated EC50 (μM), activation of α2β3γ2-containing GABAA receptors): 18.7 µM"
